# Measurements from patent US12559553B2, “IL-31 modulators for treating FXR-induced pruritus” (Gilead Sciences, Inc., priority 2021, dated 2026).
# Several values for one entry are separate records, joined by “and”; a condition that tells them apart may be missing. Equal values may be shown once. Entries after “also recorded” stand apart in the source; their conditions may differ.
# Assays:
# [1] = test system: human IL-31; test: IL-31 in chimeric PXB mice with human hepatocytes treated with OCA; assay type: in vivo; conditions: OCA 10 mg/kg QD for 18 days
# [2] = Pruritus adverse events, Phase 2 study of cilofexor in PSC patients; assay type: in vivo, human
# Procedure: (§1) Serum IL-31 (SIMOA® assay; Myriad, Austin, TX) was measured in two Phase 2 studies of cilofexor (CILO, a non-steroidal FXR agonist) in PSC (n=52) and PBC (n=71). In all studies, patients were randomized 2:2:1 to CILO 100 mg, 30 mg, or placebo daily. Associations between serum IL-31 and pruritus-related adverse events and patient-reported outcomes (Visual Analog Scale [VAS] and 5-D Itch) were determined.
# [3] = test system: 7α-hydroxy-4-cholesten-3-one (C4); test: C4 levels in circulation, CILO NASH study; assay type: in vivo, human
# Excerpt: (§2) Activation of FXR in the intestinal epithelial cells induces FGF-19 secretion. FGF-19 suppressed CYP7A1 expression, which is a key enzyme to […] 7α-hydroxycholesterol. 7α-hydroxycholesterol is metabolized into 7α-hydroxy-4-cholesten-3-one (C4). The increased FGF-19 and reduced C4 levels in circulation are target engagement assessments for FXR agonists.
# [4] = test system: IL-31; test: Serum IL-31 in serially collected samples (intensive sampling), CILO NASH study; assay type: in vivo, human; conditions: NASH patients, CILO 100 mg
# Procedure: A similar intensive sampling study was also performed in the CILO NASH study. IL-31 levels in the serially collected samples were compared in NASH patients and HVs with CILO 100 mg. In HVs with CILO 100 mg, serum IL-31 achieved the peak concentration of 0.22 pg/mL and 2.6 fold increase from pre-dose (data not shown). NASH patients with the same dose had more increased serum IL-31 than HV. […] Activation of FXR in the intestinal epithelial cells induces FGF-19 secretion. FGF-19 suppressed CYP7A1 expression, which is a key enzyme to […] 7α-hydroxycholesterol. 7α-hydroxycholesterol is metabolized into 7α-hydroxy-4-cholesten-3-one (C4). The increased FGF-19 and reduced C4 levels in circulation are target engagement assessments for FXR agonists.
# [5] = test system: IL-31; test: Serum IL-31 (SIMOA assay), Phase 2 study of cilofexor in PBC patients; assay type: in vivo, human
# Procedure: Serum IL-31 (SIMOA® assay; Myriad, Austin, TX) was measured in two Phase 2 studies of cilofexor (CILO, a non-steroidal FXR agonist) in PSC (n=52) and PBC (n=71). In all studies, patients were randomized 2:2:1 to CILO 100 mg, 30 mg, or placebo daily. Associations between serum IL-31 and pruritus-related adverse events and patient-reported outcomes (Visual Analog Scale [VAS] and 5-D Itch) were determined. In PBC, IL-31 correlated to VAS (ρ=0.42, p<0.001) and 5-D Itch (ρ=0.58, p<0.001) (Table 6).
# [6] = test system: FGF-19; test: FGF-19 target engagement in NASH patients; assay type: in vivo, human
# Excerpt: as §2
# [7] = test system: IL-4; test: Serum IL-4 and other inflammatory markers in the CILO NASH study; assay type: in vivo, human; conditions: NASH patients
# Procedure: IL-31 is expressed and secreted by activated T helper 2 (Th2) cell. IL-4, a type II immune cytokine, was associated with activation of Th2 cells and serum IL-31 levels in patients with atopic dermatitis. Serum IL-4 levels were assessed in the CILO NASH and PSC studies.
# [8] = test system: IL-31; test: Serum IL-31 pre-dose and post-dose, CILO phase 1 study in healthy volunteers; assay type: in vivo, human
# Procedure: In the CILO phase 1 study, serum IL-31 levels were assessed in pre-dose and post-dose (from 1 to 8 hr) samples from the healthy volunteers (HVs) with placebo or CILO 30 mg, 100 mg or 300 mg. The HVs with CILO 100 mg or 300 mg had elevated serum IL-31 levels with peak concentration at 4-6 hr post-dose samples (data not shown). A similar intensive sampling study was also performed in the CILO NASH study. IL-31 levels in the serially collected samples were compared in NASH patients and HVs with CILO 100 mg. In HVs with CILO 100 mg, serum IL-31 achieved the peak concentration of 0.22 pg/mL and 2.6 fold increase from pre-dose (data not shown). NASH patients with the same dose had more increased serum IL-31 than HV.
# [9] = test system: IL-31; test: Serum IL-31 (SIMOA assay), Phase 2 study of cilofexor in PSC patients; assay type: in vivo, human
# Procedure: as §1
# [10] = Cholestasis (ALP and BA levels) in PSC and PBC patients; assay type: in vivo, human
# [11] = test system: IL-31; test: Serum IL-31 (SIMOA assay), Phase 2 study of cilofexor in non-cirrhotic NASH patients; assay type: in vivo, human; conditions: for Serum IL-31, median (IQR) / Increase of IL-31 in patients with grade 2 or 3 pruritus versus the others: NASH
# Procedure: Serum IL-31 (SIMOA©assay; Myriad, Austin, TX) was measured in a Phase 2 study of cilofexor (CILO, a non-steroidal FXR agonist) in non-cirrhotic NASH (n=140) patients. Patients were randomized 2:2:1 to CILO 100 mg, 30 mg, or placebo daily. Associations between serum IL-31 and pruritus-related adverse events and patient-reported outcomes (Visual Analog Scale [VAS] and 5-D Itch) were determined.
# [12] = test system: FGF-19; test: FGF-19 target engagement in healthy volunteers; assay type: in vivo, human; conditions: CILO 100 mg, 4 hr post-dose
# Excerpt: as §2
# [13] = PBC, serially collected blood samples, 100 mg CILO, 5 hr post-dose
# [14] = serially collected blood samples, 100 mg CILO, 6 hr post-dose
smiles,measurement,setting,value
"CC[C@H]1[C@@H](O)[C@@H]2[C@H](CC[C@]3(C)[C@@H]([C@H](C)CCC(=O)O)CC[C@@H]23)[C@@]2(C)CC[C@@H](O)C[C@@H]12 [OCA, obeticholic acid]",Hepatic IL-31 mRNA expression vs vehicle,[1],7.8 fold
"O=C(O)c1ccnc(N2CC(O)(c3ccc(OCc4c(-c5c(Cl)cccc5Cl)noc4C4CC4)cc3Cl)C2)c1 [CILO, cilofexor]",Effect on pruritus,[2],did not exacerbate pruritus
same,"Any Grade pruritus, patients",[2]; CILO 30 mg,5
same,"Grade 1 pruritus, patients",[2]; CILO 30 mg,2
same,"Grade 2 pruritus, patients",[2]; CILO 30 mg,1
same,"Grade 3 pruritus, patients",[2]; CILO 30 mg,2
same,Patients who reported grade 2 or 3 pruritus,[2]; CILO 30 mg,3 subjects
same,"Any Grade pruritus, patients",[2]; CILO 100 mg,8
same,"Grade 1 pruritus, patients",[2]; CILO 100 mg,5
same,"Grade 2 pruritus, patients",[2]; CILO 100 mg,1
same,"Grade 3 pruritus, patients",[2]; CILO 100 mg,2
same,Patients who reported grade 2 or 3 pruritus,[2]; CILO 100 mg,3 subjects
same,C4 levels compared to placebo,"[3]; W24, CILO 30 mg",significantly declined
same,C4 levels compared to placebo,"[3]; W24, CILO 100 mg",significantly declined
same,Serum IL-31 peak concentration,[4]; 4-6 hr post-dose,13 pg/mL and 12 to 13 pg/mL
same,Serum IL-31 increase from pre-dose,[4]; at peak,23.6 fold and 21.8-23.6 fold
same,Dose-dependent effect on serum IL-31,[5]; PBC patients,not observed
same,Effect on serum IL-31 levels,"[5]; PBC patients, fasting samples at Weeks 1, 4 and 12, compared to placebo",did NOT change; also recorded: no effect; also recorded: did not alter
same,IL-31 increase from pre-dose,[5]; [13],2.5 fold
same,IL-31 level post-dose,[5]; [13],7.4 pg/mL
same,IL-31 median level at pre-dose,"[5]; PBC, serially collected blood samples, 100 mg CILO, pre-dose",3 pg/mL
same,FGF-19 peak concentration,"[6]; NASH patients, CILO 100 mg, 4 hr post-dose",829.7 pg/mL
same,FGF-19 increase from pre-dose,[6]; [14],45.9 fold
same,FGF-19 peak concentration,[6]; [14],around 1826 pg/mL
same,FGF-19 median at pre-dose,"[6]; serially collected blood samples, 100 mg CILO, pre-dose",39.8 pg/mL
same,Effect on other inflammatory markers (IL-4 and IL-18),[7],without changing
same,Effect on serum IL-4,[7],did not elevate
same,Serum IL-31 peak concentration,[8]; CILO 100 mg,0.22 pg/mL
same,Serum IL-31 levels post-dose,[8]; CILO 100 mg or 300 mg,elevated
same,Time of peak serum IL-31 concentration post-dose,[8]; CILO 100 mg or 300 mg,4 to 6 h
same,Serum IL-31 increase from pre-dose,"[8]; CILO 100 mg, at peak",2.6 fold
same,Dose-dependent effect on serum IL-31,[9],not observed
same,Effect on serum IL-31 levels,[9]; 12-week treatment,did not alter; also recorded: no effect
same,Effect on cholestasis (ALP and BA levels),[10],improved cholestasis
same,Effect on serum IL-31,"[11]; NASH patients, week 1 to week 24, 30 mg and 100 mg",increased serum IL-31 in a dose-dependent manner
same,"Serum IL-31, median (IQR)","[11]; CILO 30 mg, Baseline",0.09 pg/mL
same,"Serum IL-31, median (IQR)","[11]; CILO 30 mg, Week 1",0.15 pg/mL
same,"Serum IL-31, median (IQR)","[11]; CILO 30 mg, Week 4",0.105 pg/mL
same,"Serum IL-31, median (IQR)","[11]; CILO 30 mg, Week 8",0.14 pg/mL
same,"Serum IL-31, median (IQR)","[11]; CILO 30 mg, Week 12",0.145 pg/mL
same,"Serum IL-31, median (IQR)","[11]; CILO 30 mg, Week 24","0.15 (0.062, 0.27) pg/mL and 0.15 pg/mL"
same,"Serum IL-31, median (IQR)","[11]; CILO 100 mg, Baseline",0.083 pg/mL
same,"Serum IL-31, median (IQR)","[11]; CILO 100 mg, Week 1",0.21 pg/mL
same,"Serum IL-31, median (IQR)","[11]; CILO 100 mg, Week 4",0.24 pg/mL
same,"Serum IL-31, median (IQR)","[11]; CILO 100 mg, Week 8",0.26 pg/mL
same,"Serum IL-31, median (IQR)","[11]; CILO 100 mg, Week 12",0.26 pg/mL
same,"Serum IL-31, median (IQR)","[11]; CILO 100 mg, Week 24","0.26 (0.13, 0.82) pg/mL and 0.26 pg/mL"
same,Increase of IL-31 in patients with grade 2 or 3 pruritus versus the others,[11]; W1,5.1 fold
same,Increase of IL-31 in patients with grade 2 or 3 pruritus versus the others,[11]; W4,2.9 fold
same,Increase of IL-31 in patients with grade 2 or 3 pruritus versus the others,[11]; W8,3.8 fold
same,Increase of IL-31 in patients with grade 2 or 3 pruritus versus the others,[11]; W12,4.5 fold
same,Increase of IL-31 in patients with grade 2 or 3 pruritus versus the others,[11]; W24,7 fold
same,FGF-19 peak concentration,[12],591.6 pg/mL
